Measurements from US11753407B2, “Compounds for treating spinal muscular atrophy” (PTC Therapeutics, Inc., priority 2012, dated 2023).

Key:
[1] = system: gems (Smn protein nuclear foci) in SMA patient fibroblast cells (GM03813); assay: Gems count (Smn-dependent nuclear speckle count) assay; assay type: cell-based, human; details: SMA Type 1 patient cells, 48 hours, relative to DMSO (FIG. 9)
Excerpt: The level of Smn protein directly correlates with the amount of nuclear foci, also known as gems, produced upon staining the cell with a fluorescently labeled anti-Smn antibody (Liu and Dreyfuss, EMBO J., 1996, 15:3555). Gems are multi-protein complexes whose formation is nucleated by the Smn protein and the gems count assay is used to evaluate the level of Smn protein in the cell. As described herein, the gems count assay is used to quantify the level of Smn protein in SMA patient fibroblast cells treated with a test compound.
Protocol: Cells are thawed and incubated in DMEM-10% FBS for 72 hours, then trypsinized, counted and resuspended to 100,000 cells/mL in DMEM-10% FBS. The cell suspension (2 mL) is plated in a 6-well cell culture plate with a sterile cover slip and incubated for 3 to 5 hours. Test compounds are serially diluted 3.16-fold in 100% DMSO to generate a 7-point dilution curve. […]
Cell culture medium is aspirated from the wells containing cover slips and gently washed three times with cold PBS. […] The number of gems is counted per >150 nuclei and % activation is calculated using DMSO and 10 nM bortezomib as controls. For each test compound, the cells are examined at all wavelengths to identify test compounds with inherent fluorescence.

[2] = system: SMN2 mRNA in tissues of C/C-allele SMA mice; assay: SMN2 mRNA RT-qPCR splicing assay in animal tissues; assay type: in vivo; details: brain and muscle, 10 mg/kg BID oral gavage 10 days, versus vehicle (FIG. 6)
Protocol: The reverse transcription-quantitative PCR-based (RT-qPCR) assay is used to quantify the levels of the full length and Δ7 SMN2 mRNA in tissues from mice treated with test compound.
Protocol. C/C-allele SMA mice are treated by oral gavage two times per day (BID) for 10 days with test compounds re-suspended in 0.5% HPMC and 0.1% Tween-80. Tissue samples were collected and snap frozen for RNA purification.
Tissue samples (20-40 mg) are homogenized in QIAzol Lysis Reagent for 2 minutes at 20 Hz in the TissueLyser II using one stainless steel bead. After addition of chloroform, the homogenate is separated into aqueous and organic phases by centrifugation. RNA partitioned to the upper, aqueous phase is extracted and ethanol is added to provide appropriate binding conditions. The sample is then applied to the RNeasy spin column from the RNeasy Mini Kit, where total RNA binds to the membrane. The RNA is eluted in RNase-free water then stored at −20° C. and subsequently analyzed using the TaqMan RT-qPCR on the 7900HT Thermocycler. Total RNA is diluted ten fold and 2.5 μL of the diluted sample is added to the TaqMan RT-qPCR mixture.
SMN2 spliced products are identified using the following primers and probe in Table 7. Primer SMN FL Forward B (SEQ ID NO. 7) hybridizes to a nucleotide sequence in exons 7 and 8, primer SMN Δ7 Forward B (SEQ ID NO. 8) hybridizes to a nucleotide sequence in exons 6 and 8, primer SMN Reverse B (SEQ ID NO. 9) hybridizes to a nucleotide sequence in exon 8, probe SMN Probe B (SEQ ID NO. 10) hybridizes to a nucleotide sequence in exon 8. These primers and probe hybridize to nucleotide sequences common to human SMN1 and SMN2 mRNA. Since the SMA patient cells used in Example 5 contain only the SMN2 gene, RT-qPCR can quantify only SMN2 full-length and Δ7 mRNA.
The SMN forward and reverse primers are used at final concentrations of 0.4 μM. The SMN probe is used at a final concentration of 0.15 μM. The SMN-GAPDH Mix (10 μL total volume) is prepared by combining 5 μL of 2× RT-PCR buffer, 0.4 μL of 25× RT-PCR enzyme mix, 0.5 μL of 20× GAPDH primer-probe mix, 1.505 μL of water, 2.5 μL of RNA solution, 0.04 μL of 100 μM forward primer, 0.04 μL of 100 μM reverse primer, and 0.015 μL of 100 μM SMN probe. […]
The increase of SMN2 FL and decrease in SMN2 Δ7 mRNA relative to those in tissues from animals treated with vehicle control are determined from real-time PCR data using a modified ΔΔCt method (as described in Livak and Schmittgen, Methods, 2001, 25:402-8). The amplification efficiency (E) is calculated from the slope of the amplification curve for SMN2 FL, SMN2 Δ7, and GAPDH individually. The abundances of SMN2 FL, SMN2 Δ7, and GAPDH are then calculated as (1+E)^−Ct, where Ct is the threshold value for each amplicon. […]

SMILES: COc1ccc(-c2cc(=O)n3cc(N4CCNCC4)ccc3n2)cc1OC [Cpd 6, 2-(3,4-dimethoxyphenyl)-7-(piperazin-1-yl)-4H-pyrido[1,2-a]pyrimidin-4-one]
- gems (nuclear speckle count) [1]: progressively more gems
- SMN2 FL mRNA [2]: substantially more SMN2 FL mRNA
- SMN2 Δ7 mRNA [2]: less SMN2 Δ7 mRNA

SMILES: Cc1cn2nc(-c3cc(=O)n4cc(N5CCN(C)CC5)ccc4n3)cc2c(C)n1 [Cpd 170, 2-(4,6-dimethylpyrazolo[1,5-a]pyrazin-2-yl)-7-(4-methylpiperazin-1-yl)-4H-pyrido[1,2-a]pyrimidin-4-one]
- gems (nuclear speckle count) [1]: progressively more gems
- SMN2 FL mRNA [2]: substantially more SMN2 FL mRNA
- SMN2 Δ7 mRNA [2]: less SMN2 Δ7 mRNA
